In patent US8273780B2, “Polycyclic antagonists of lysophosphatidic acid receptors” (Amira Pharmaceuticals, Inc., priority 2009, dated 2012) one finds IC50 data, which are given here for 20 molecules.

One may read the IC50 as the concentration at which inhibition is half-maximal.

One assay addresses T1, Human LPA1 (Homo sapiens, UniProt Q92633).
T1 construct: the full-length cDNA for human LPA1 was obtained by PCR of the reverse transcription reaction; expressed in transfected cells
The experiment in a line: LPA1 calcium flux assay. It is filed as cell-based. As to conditions: CHO cells expressing human LPA1, 10 nM LPA; read-out: HLPA1 Ca Flux IC50. On the procedure:
A 1.1 kb cDNA encoding the human LPA1 receptor was cloned from human lung. Human lung RNA (Clontech Laboratories, Inc. USA) was reverse transcribed using the RETROscript kit (Ambion, Inc.) and the full-length cDNA for human LPA1 was obtained by PCR of the reverse transcription reaction. The nucleotide sequence of the cloned human LPA1 was determined by sequencing and confirmed to be identical to the published human LPA1 sequence (An et al. Biochem. Biophys. Res. Commun. 231:619 (1997). The cDNA was cloned into the pcDNA5/FRT expression plasmid and transfected in CHO cells using lipofectamine 2000 (Invitrogen Corp., USA). Clones stably expressing human LPA1 were selected using hygromycin and identified as cells that show Ca-influx in response to LPA.
(§1) Human LPA1 or LPA3 expressing CHO cells are seeded at 20,000-45,000 cells per well in a 96-well poly-D-lysine coated plate one or two days before the assay. Prior to the assay, the cells are washed once with PBS and then cultured in serum-free media overnight. On the day of the assay, a calcium indicator dye (Calcium 4, Molecular Devices) in assay buffer (HBSS with Ca^2+and Mg^2+ and containing 20 mM Hepes and 0.3% fatty-acid free human serum albumin) is added to each well and incubation continued for 1 hour at 37° C. 10 μl of test compounds in 2.5% DMSO are added to the cells and incubation continued at room temperature for 30 minutes. Cells are the stimulated by the addition of 10 nM LPA and intracellular Ca^2+ measured using the Flexstation 3 (Molecular Devices). IC50s are determined using Graphpad prism analysis of drug titration curves.

The next assay deals with T2, Human LPA3 (Homo sapiens, UniProt Q9UBY5).
T2 construct: The full-length cDNA fragment for human LPA3 was obtained by PCR from the vector; expressed in transfected cells; cDNA from the Missouri S&T cDNA Resource Center
T2 sequence (Q9UBY5 1-353): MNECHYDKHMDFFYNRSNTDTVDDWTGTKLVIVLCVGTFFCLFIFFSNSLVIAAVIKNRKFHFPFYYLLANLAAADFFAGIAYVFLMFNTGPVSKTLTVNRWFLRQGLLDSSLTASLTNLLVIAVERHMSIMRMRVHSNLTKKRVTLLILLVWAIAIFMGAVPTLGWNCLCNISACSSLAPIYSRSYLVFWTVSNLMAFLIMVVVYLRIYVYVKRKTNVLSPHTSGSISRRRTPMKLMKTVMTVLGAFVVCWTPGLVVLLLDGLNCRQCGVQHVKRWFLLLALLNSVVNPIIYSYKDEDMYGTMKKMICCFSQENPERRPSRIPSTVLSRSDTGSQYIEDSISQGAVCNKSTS
Kind of assay: LPA3 calcium flux assay. As to conditions: CHO cells expressing human LPA3, 10 nM LPA; read-out: HLPA3 Ca Flux IC50. Type of assay: cell-based. On the procedure: A vector containing the human LPA3 receptor cDNA was obtained from the Missouri S&T cDNA Resource Center (www.cdna.org). The full-length cDNA fragment for human LPA3 was obtained by PCR from the vector. The nucleotide sequence of the cloned human LPA3 was determined by sequencing and confirmed to be identical to the published human LPA3 sequence (NCBI accession number NM_012152). The cDNA was cloned into the pcDNA5/FRT expression plasmid and transfected in CHO cells using lipofectamine 2000 (Invitrogen Corp., USA). Clones stably expressing human LPA3 were selected using hygromycin and identified as cells that show Ca-influx in response to LPA.
as §1
On the technique in general: Calcium assays in cells follow changes in intracellular calcium, usually with a dye or a luminescent sensor.

T1 sequence (Q92633 whole entry): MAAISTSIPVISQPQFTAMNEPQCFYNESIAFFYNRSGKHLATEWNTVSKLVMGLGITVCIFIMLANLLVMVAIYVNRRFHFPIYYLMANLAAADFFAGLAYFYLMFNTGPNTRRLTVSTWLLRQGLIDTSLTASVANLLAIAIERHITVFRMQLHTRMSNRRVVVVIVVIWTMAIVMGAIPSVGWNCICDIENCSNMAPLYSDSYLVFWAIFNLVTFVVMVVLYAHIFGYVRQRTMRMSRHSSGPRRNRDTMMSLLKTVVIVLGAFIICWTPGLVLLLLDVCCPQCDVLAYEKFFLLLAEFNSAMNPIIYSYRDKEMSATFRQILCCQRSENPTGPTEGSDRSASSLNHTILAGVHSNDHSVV

With `COc1ccc([C@@H](C)OC(=O)Nc2c(C)noc2-c2ccc(-c3ccc(C4(C(=O)O)CC4)cc3)cc2)cc1` [Compound 24, 1-(4′-{4-[(R)-1-(4-Methoxy-phenyl)-ethoxycarbonylamino]-3-methyl-isoxazol-5-yl}-biphenyl-4-yl)-cyclopropanecarboxylic acid], the figures for the half-maximal inhibitory concentration (IC50) at Human LPA1 and on Human LPA3 were under 300 nM and over 10000 nM, respectively.

Consider `CCc1noc(-c2ccc(-c3ccc(C4(C(=O)O)CC4)cc3)cc2)c1NC(=O)O[C@H](C)c1cccc(C(F)(F)F)c1` [Compound 30, 1-(4′-{3-Ethyl-4-[(R)-1-(3-trifluoromethyl-phenyl)-ethoxycarbonylamino]-isoxazol-5-yl}-biphenyl-4-yl)-cyclopropanecarboxylic acid], for which the half-inhibitory concentration (IC50) at Human LPA1 and on Human LPA3 was under 300 nM each time.

`Cc1noc(-c2ccc(-c3ccc(C4(C(=O)O)CCC4)cc3)cc2)c1NC(=O)O[C@H](C)c1ccccc1` [Compound 10, 1-{4′-[3-Methyl-4-((R)-1-phenyl-ethoxycarbonylamino)-isoxazol-5-yl]-biphenyl-4-yl}-cyclobutanecarboxylic acid]: the values for the IC50 on Human LPA1 and on Human LPA3 were under 300 nM and 1000 to 10000 nM, respectively.

For the molecule `COc1cc(-c2ccc(C3(C(=O)O)CC3)cc2)ccc1-c1onc(C)c1NC(=O)O[C@H](C)c1cccc(C(F)(F)F)c1` [Compound 31, 1-(3′-Methoxy-4′-{3-methyl-4-[(R)-1-(3-trifluoromethyl-phenyl)-ethoxycarbonylamino]-isoxazol-5-yl}-biphenyl-4-yl)-cyclopropanecarboxylic acid], the IC50 at Human LPA1 and on Human LPA3 was under 300 nM throughout.

For the molecule `Cc1noc(-c2ccc(-c3ccc(C4(C(=O)O)CC4)cc3)cc2)c1NC(=O)OCC1CC1` [Compound 7, 1-[4′-(4-Cyclopropylmethoxycarbonylamino-3-methyl-isoxazol-5-yl)-biphenyl-4-yl]-cyclopropanecarboxylic acid], the IC50 is under 300 nM at Human LPA1 and over 10000 nM at Human LPA3.

Take `COc1ccccc1C(C)OC(=O)Nc1c(C)noc1-c1ccc(-c2ccc(C3(C(=O)O)CC3)cc2)cc1` (stereo not shown) [Compound 12, 1-(4′-{4-[1-(2-Methoxy-phenyl)-ethoxycarbonylamino]-3-methyl-isoxazol-5-yl}-biphenyl-4-yl)-cyclopropanecarboxylic acid]: on Human LPA1, the IC50 is under 300 nM.

For the molecule `Cc1noc(-c2ccc(-c3ccc(C4(C#N)CC4)cc3)cc2)c1NC(=O)O[C@H](C)c1ccccc1` [Compound 37, {5-[4′-(1-Cyano-cyclopropyl)-biphenyl-4-yl]-3-methyl-isoxazol-4-yl}-carbamic acid (R)-1-phenyl-ethyl ester], the results for the half-maximal inhibitory concentration (IC50) on Human LPA1 and on Human LPA3 were 1000 to 10000 nM and over 10000 nM, respectively.

Turning to `Cc1noc(-c2ccc(-c3ccc(C4(C(=O)O)CCCC4)cc3)cc2)c1NC(=O)O[C@H](C)c1ccccc1` [Compound 11, 1-{4′-[3-Methyl-4-((R)-1-phenyl-ethoxycarbonylamino)-isoxazol-5-yl]-biphenyl-4-yl}-cyclopentanecarboxylic acid], the results for the half-maximal inhibitory concentration (IC50) at Human LPA1 and at Human LPA3 were under 300 nM and 1000 to 10000 nM, respectively.

With `Cc1noc(-c2ccc(-c3ccc(C4(C(=O)O)CC4)cc3)cc2)c1NC(=O)OC(C)c1cccc(O)c1` (stereo not shown) [Compound 28, 1-(4′-{4-[1-(3-Hydroxy-phenyl)-ethoxycarbonylamino]-3-methyl-isoxazol-5-yl}-biphenyl-4-yl)-cyclopropanecarboxylic acid], the IC50 on Human LPA1 is under 300 nM; on Human LPA3 it was over 10000 nM.

For `Cc1noc(-c2ccc(-c3ccc(C4(C(=O)O)CC4)cc3)cc2)c1NC(=O)O[C@H](C)c1ccc(C#N)cc1` [Compound 18, 1-(4′-{4-[(R)-1-(4-Cyano-phenyl)-ethoxycarbonylamino]-3-methyl-isoxazol-5-yl}-biphenyl-4-yl)-cyclopropanecarboxylic acid], the figures for the IC50 at Human LPA1 and at Human LPA3 were under 300 nM and 1000 to 10000 nM, respectively.

For `Cc1noc(-c2ccc(-c3ccc(C4(C(=O)O)CC4)cc3)cc2)c1NC(=O)OC(C)c1cccc(Cl)c1` (stereo not shown) [Compound 26, 1-(4′-{4-[1-(3-Chloro-phenyl)-ethoxycarbonylamino]-3-methyl-isoxazol-5-yl}-biphenyl-4-yl)-cyclopropanecarboxylic acid], the IC50 at Human LPA1 was under 300 nM; on Human LPA3, 300 to 1000 nM.

As for `Cc1noc(-c2ccc(-c3ccc(C4(C(=O)O)CC4)cc3)cc2)c1NC(=O)O[C@H](C)c1cccc(C(F)(F)F)c1` [Compound 22, 1-(4′-{3-Methyl-4-[(R)-1-(3-trifluoromethyl-phenyl)-ethoxycarbonylamino]-isoxazol-5-yl}-biphenyl-4-yl)-cyclopropanecarboxylic acid], the half-inhibitory concentration (IC50) at Human LPA1 and at Human LPA3 was under 300 nM throughout.

Regarding `Cc1noc(-c2ccc(-c3ccc(C4(C(=O)O)CC4)cc3)cc2)c1NC(=O)OC(C)c1ccc(C(F)(F)F)cc1` (single isomer, unassigned) [Compound 14, 1-(4′-{3-Methyl-4-[1-(4-trifluoromethyl-phenyl)-ethoxycarbonylamino]-isoxazol-5-yl}-biphenyl-4-yl)-cyclopropanecarboxylic acid], the IC50 was under 300 nM at Human LPA1 and 1000 to 10000 nM at Human LPA3.

Consider `Cc1noc(-c2ccc(-c3ccc(C4(C(=O)O)CC4)cc3)cc2)c1NC(=O)O[C@@H](C)C1CC1` (single isomer, unassigned) [Compound 5], for which, on Human LPA1, the IC50 fell in the range of 1000 to 10000 nM.

`Cc1noc(-c2ccc(-c3ccc(C4(C(=O)O)CC4)cc3)cc2)c1NC(=O)OC(C)c1cccc(Br)c1` (stereo not shown) [Compound 25, 1-(4′-{4-[1-(3-Bromo-phenyl)-ethoxycarbonylamino]-3-methyl-isoxazol-5-yl}-biphenyl-4-yl)-cyclopropanecarboxylic acid]: the half-maximal inhibitory concentration (IC50) is under 300 nM on Human LPA1 and 300 to 1000 nM at Human LPA3.

Consider `Cc1noc(-c2ccc(-c3ccc(C4(C(=O)O)CC4)cc3)cc2)c1NC(=O)OC(C)C1CCCCC1` (stereo not shown) [Compound 2, 1-{4′-[4-(1-Cyclohexyl-ethoxycarbonylamino)-3-methyl-isoxazol-5-yl]-biphenyl-4-yl}-cyclopropanecarboxylic acid], for which the concentration for half-maximal inhibition (IC50) at Human LPA1 was under 300 nM; on Human LPA3, 1000 to 10000 nM.

Consider `Cc1noc(-c2ccc(-c3ccc(C4(C(=O)NS(C)(=O)=O)CC4)cc3)cc2)c1NC(=O)O[C@H](C)c1cccc(C(F)(F)F)c1` [Compound 40, {5-[4′-(1-Methanesulfonylaminocarbonyl-cyclopropyl)-biphenyl-4-yl]-3-methyl-isoxazol-4-yl}-carbamic acid (R)-1-(3-trifluoromethyl-phenyl)-ethyl ester], for which the IC50 was under 300 nM at Human LPA1 and 300 to 1000 nM on Human LPA3.

In the case of `Cc1noc(-c2ccc(-c3ccc(C4(C(=O)O)CC4)cc3)cc2)c1NC(=O)OC(C)c1cccc(C#N)c1` (stereo not shown) [Compound 15, 1-(4′-{4-[1-(3-Cyano-phenyl)-ethoxycarbonylamino]-3-methyl-isoxazol-5-yl}-biphenyl-4-yl)-cyclopropanecarboxylic acid], the IC50 at Human LPA1 is under 300 nM; on Human LPA3 it was 1000 to 10000 nM.

As for `Cc1noc(-c2ccc(-c3ccc(C4(C(=O)O)CC4)cc3)cc2)c1NC(=O)O[C@H](C)c1cc(Br)cc(Br)c1` [Compound 32, 1-(4′-{4-[(R)-1-(3,5-Dibromo-phenyl)-ethoxycarbonylamino]-3-methyl-isoxazol-5-yl}-biphenyl-4-yl)-cyclopropanecarboxylic acid], the IC50 at Human LPA1 was under 300 nM; at Human LPA3, 1000 to 10000 nM.

With `Cc1noc(-c2ccc(-c3ccc(C4(C(=O)O)CC4)cc3)cc2)c1NC(=O)OC(C)c1ccc(C(F)(F)F)cc1` (single isomer, unassigned) [Compound 13, 1-(4′-{3-Methyl-4-[1-(4-trifluoromethyl-phenyl)-ethoxycarbonylamino]-isoxazol-5-yl}-biphenyl-4-yl)-cyclopropanecarboxylic acid], the IC50 on Human LPA1 was 1000 to 10000 nM.
